According to article PMC6321439, “Structural Elucidation and Cytotoxicity of a New 17-Membered Ring Lactone from Algerian Eryngium campestre” (Molecules, 2018):
Values after ≈ are worked out from the molar mass of the structure shown. Where two headings read alike, the source gives them in different places. Values belong to the molecule of their own block, whether it stands above or below them.

Experiments:
[1] = parameters: method as in earlier work; conditions: cited from earlier work
[2] = system: Trypanosoma brucei brucei; parameters: method as in PMID 22473703; conditions: cited from earlier work
[3] = Cytotoxicity / anticancer activity on J774 cells; assay type: cell-based; conditions: mouse, J774 cancerous macrophage-like murine cells, mean ± SD from at least six values
Experimental: (§1) The crude extract and the newly identified pure compound (91.9%), campestrolide, were evaluated in vitro for their cytotoxicity on two mammalian cell lines: normal human fibroblasts (WI38) and cancerous macrophage-like murine cells. Their antiprotozoal activities were also investigated on Trypanosoma brucei brucei (Tbb. strain 427) bloodstream forms and Leishmania mexicana mexicana (Lmm. MHOM/BZ/84/BEL46) promastigotes. The tests were performed using stock solutions prepared in DMSO at 10 mg/mL. For the cytotoxicity assay, the samples were tested in eight serial 1.7-fold dilutions (150 µL transferred into 100 µL fresh medium) in the 96-well microtiter plates (concentration range: 0.7–25 µg/mL). The camptothecin (Sigma-Aldrich, St.-Louis, MO, USA) was used as a positive control with 5-fold dilutions (concentration range: 0.00032–25 µg/mL) from a 10 mg/mL DMSO stock solution. For the antiparasitic assays, the samples were tested in eight serial 2-fold dilutions (concentration range: 0.20–25 or 0.10–12 µg/mL on Leishmania and Trypanosoma, respectively). Suramine sodium and pentamidine isethionate salts (Sigma-Aldrich, St.-Louis, MO, USA) were used as a positive control with 3-fold dilutions (0.0046–10 µg/mL) from a stock solution of 2 mg/mL as well as amphotericin B. A maximum of 0.5% DMSO was previously verified to be non-toxic in all the biological assays. The IC50 values were determined using Microsoft Excel and GraphPad Prism 7.0 software (GraphPad, San Diego, CA, USA), based on a nonlinear regression. The selectivity index was calculated in comparison to the WI38 cytotoxicity to assess the therapeutic properties as antiparasitic or anticancer hits.

all tested cells = assay: Summary over cytotoxicity and antiprotozoal assays; assay type: cell-based; conditions: read-out: IC50 on all tested cells except Trypanosoma
Experimental: as §1, with “Suramine sodium and pentamidine isethionate salts (Sigma-Aldrich, St.-Louis, MO, USA) were used as a positive control with 3-fold dilutions (0.0046–10 µg/mL) from a stock solution of 2 mg/mL as well as amphotericin B. A maximum of 0.5% DMSO was previously verified to be non-toxic in all the biological assays.” left out

[4] = Cytotoxicity on WI38 cells; assay type: cell-based; conditions: human, WI38 normal human fibroblasts, mean ± SD from at least six values
Experimental: as §1

[5] = system: Trypanosoma brucei brucei (bloodstream forms); assay: Antitrypanosomal activity in vitro; assay type: cell-based
Experimental: as §1

[6] = system: Leishmania mexicana mexicana promastigotes; assay: Antileishmanial activity in vitro; assay type: cell-based; conditions: for IC50: Leishmania mexicana
Experimental: as §1

[7] = system: Trypanosoma brucei rhodesiense, T. cruzi, Plasmodium falciparum and Leishmania donovani axenic and the infected macrophages amastigotes; parameters: method as in PMID 17922552; conditions: cited from earlier work; for IC50: T. b. rhodesiense, T. cruzi, P. falciparum, L. donovani axenic and infected-macrophage amastigotes, read-out: IC50 on protozoan panel
cruzain = system: cruzain; parameters: method as in PMID 22414103; conditions: cited from earlier work
T. cruzi trypomastigotes = system: T. cruzi trypomastigotes; parameters: method as in PMID 22414103; conditions: at 100 µg/mL; cited from earlier work
[8] = read-out: Cytotoxicity IC50 ± SD J774
[9] = read-out: Cytotoxicity IC50 ± SD J774 (µM for pure compound)
[10] = read-out: Cytotoxicity IC50 ± SD WI38
[11] = read-out: Cytotoxicity IC50 ± SD WI38 (µM for pure compound)
[12] = Trypanosoma brucei, Tbb bloodstream forms, strain 427, read-out: Antiparasitic activity IC50 ± SD Tbb
[13] = Trypanosoma brucei, Tbb bloodstream forms, strain 427, read-out: Antiparasitic activity IC50 ± SD Tbb (µM for pure compound)
[14] = Lmm promastigotes, read-out: Antiparasitic activity IC50 ± SD Lmm
[15] = Lmm promastigotes, read-out: Antiparasitic activity IC50 ± SD Lmm (µM for pure compound)

Structure (SMILES): C=C[C@H](O)C#CC#CC/C=C\CCCCCCC [Falcarinol]
reported log P [1]: 5.50
SI compared to HeLa cytotoxicity ([2]; T. b. brucei compared to HeLa): 858
IC50 [2]: 40 nM
IC50 on Trypanosoma brucei brucei [2]: 0.01 µg/mL (≈ 0.0409 µM)

Structure (SMILES): C=C[C@@H]1C#CC#CC/C=C\CCCCCCCC(=O)O1 [Compound 33, (Z)-17(R)-vinyloxacycloheptadeca-10-en-13,15-diyn-2-one]
IC50 [3, 8]: 4.84 ± 0.1 µg/mL
IC50 [3, 9]: 17.9 µM
IC50 (all tested cells): 12.5 to 19.5 µM
IC50 [4, 10]: 5.2 ± 0.24 µg/mL
IC50 [4, 11]: 19.2 µM
Antiparasitic activity IC50 ± SD Tbb ([5]; Tbb bloodstream forms, strain 427): 0.59 ± 0.08 µg/mL
IC50 ([5]; Tbb bloodstream forms, strain 427, read-out: Antiparasitic activity IC50 ± SD Tbb (µM for pure compound)): 2.17 µM
IC50 [5, 12]: 0.6 µg/mL
IC50 [5, 13]: 2.2 µM
Selectivity Index IC50 WI38/IC50 Parasite, Tbb ([5]; compared to WI38 cytotoxicity): 8.9
IC50 [6, 14]: 3.43 ± 0.02 µg/mL
IC50 [6, 15]: 12.7 µM
Selectivity Index IC50 WI38/IC50 Parasite, Lmm ([6]; compared to WI38 cytotoxicity): 1.5

Structure (SMILES): C[C@@H]1[C@H](O)[C@@H](C)/C=C/C=C/C=C/C=C/C=C/C=C/C=C/[C@H](O[C@@H]2O[C@H](C)[C@@H](O)[C@H](N)[C@@H]2O)C[C@@H]2O[C@](O)(C[C@@H](O)C[C@@H](O)[C@H](O)CC[C@@H](O)C[C@@H](O)CC(=O)O[C@H]1C)C[C@H](O)[C@H]2C(=O)O [amphotericin B, reference compound]
IC50 ([6]; read-out: Antiparasitic activity IC50 ± SD Lmm (µM for pure compound)): 0.09 ± 0.06 µM

Structure (SMILES): C=CC(C#CC#CC(O)CCCCCCCCCCOC(C)=O)OC(C)=O (centres unmarked) [16-acetoxy-11-hydroxyoctadeca-17-ene-12,14-diynyl ethanoate]
IC50 [7]: 100 to 2500 nM
SI compared on L6 rat skeletal myoblasts [7]: > 10

Structure (SMILES): N=C(N)c1ccc(OCCCCCOc2ccc(C(=N)N)cc2)cc1 [pentamidine, reference compound]
IC50 [6, 14]: 0.057 ± 0.008 µg/mL
IC50 [6, 15]: 0.097 µM

Structure (SMILES): C=CC(C#CC#CC(O)CCCCCCCCC)OC(C)=O (centres unmarked) [8-hydroxyheptadeca-1-ene-4,6-diyn-3-yl ethanoate]
IC50 [7]: 100 to 2500 nM
SI compared on L6 rat skeletal myoblasts [7]: > 10

Structure (SMILES): C=C1/C=C/[C@H](C(C)C)CC/C(C)=C/CC1 [germacrene D, Germacrene D]
IC50 cruzain (cruzain): 22.1 µg/mL (≈ 108 µM)
growth inhibition of T. cruzi trypomastigotes (T. cruzi trypomastigotes): 61%

IC50 [5, 12]: 0.031 ± 0.012 µg/mL
IC50 [5, 13]: 0.022 µM
Structure (SMILES): Cc1ccc(C(=O)Nc2ccc(S(=O)(=O)O)c3cc(S(=O)(=O)O)cc(S(=O)(=O)O)c23)cc1NC(=O)c1cccc(NC(=O)Nc2cccc(C(=O)Nc3cc(C(=O)Nc4ccc(S(=O)(=O)O)c5cc(S(=O)(=O)O)cc(S(=O)(=O)O)c45)ccc3C)c2)c1 [suramine, reference compound]

Structure (SMILES): CC[C@@]1(O)C(=O)OCc2c1cc1n(c2=O)Cc2cc3ccccc3nc2-1 [camptothecin, reference compound]
IC50 [3, 8]: 0.007 ± 0.005 µg/mL
IC50 [3, 9]: 0.021 µM
IC50 [4, 10]: 0.036 ± 0.022 µg/mL
IC50 [4, 11]: 0.103 µM
